Values after ≈ are worked out from the molar mass of the structure shown. Where a name gives a salt, the structure may show the parent alone.
Columns and labels:
[1] = system: Streptococcus pyogenes A 88; assay: Antibacterial activity, minimum inhibitory concentration; settings: A88, 18 h, read-out: minimum inhibitory concentration, S. pyogenes
Procedure: (§1) The antibacterial activity of some of the 3H-1,5-benzodiazepines having the general formula I was tested on the following microorganisms:
(§2) Escherichia coli 100, Bacillus subtilis ATCC 9466, Micrococcus pyogenes SG-511, grown in Difco nutritive gelatin; Streptococcus pyogenes A 88 grown in Difco "Brain heart infusion agar" gelatin with 5 percent difibrinated Guinea pig blood.
(§3) The results were read after 18 hours incubation at 35°-37°C.

[2] = system: Bacillus subtilis ATCC 9466; assay: as above; settings: ATCC9466, 18 h, read-out: minimum inhibitory concentration, B. subtilis
Procedure: as §1, §2, §3

[3] = system: Micrococcus pyogenes SG-511; assay: as above; settings: Staphylococcus aureus, SG511, 18 h, read-out: minimum inhibitory concentration, M. pyogenes
Procedure: as §1, §2, §3

Escherichia coli 100 = assay: as above; settings: Escherichia coli, 100, 18 h, read-out: minimum inhibitory concentration, B. coli
Procedure: as §1, §2, §3

[4] = system: influenza A virus (PR8 strain); format: in vivo; settings: 0.5 MTD in 10 ml buffered saline with virus, 1 hour at 37°C

Row | Structure (SMILES) | MIC [1] [µg/mL] | MIC [2] [µg/mL] | MIC [3] [µg/mL] | MIC (Escherichia coli 100) [µg/mL] | APR8: difference between logarithms of EID95 of controls and of treated eggs [4]
1 | CCCCSc1ccc(C2=Nc3ccccc3N=C(SCC[N+](C)(CC)CC)C2)cc1 [Compound 82] | 2.5 | 2.5 | 2.5 | 10 | 
2 | CC[N+](C)(CC)CCCSC1=Nc2ccccc2N=C(c2ccc(Cl)cc2)C1 [Compound 20, 2,gamma,N-diethylaminopropylthio-4,p-chlorophenyl-3H-1,5-benzodiazepine iodomethylate] | 40 | 80 | 20 | 80 | 
3 | C[N+]1(CCSC2=Nc3ccccc3N=C(c3ccccc3)C2)CCOCC1 [Compound 62] |  |  |  |  | 1
4 | CCN(CC)CCSC1=Nc2ccccc2N=C(c2ccccc2)C1 [Compound 53] |  | 80 (≈ 228 µM) | 80 (≈ 228 µM) | 80 (≈ 228 µM) | 
5 | CCN(CC)CCSC1=Nc2ccccc2N=C(c2cccc(Cl)c2)C1 [Compound 21, 2,beta,N-diethylaminothylthio-4,m-chlorophenyl-3H-1,5-benzodiazepine^. HCl] | 40 | 20 | 40 | 80 | 
6 | CCN(CC)CCSC1=Nc2ccccc2N=C(c2ccc(OC)cc2)C1 [Compound 69] | 80 (≈ 210 µM) |  |  |  | 
7 | c1ccc(C2=Nc3ccccc3N=C(SCCN3CCCCC3)C2)cc1 [Compound 59] |  | 80 (≈ 220 µM) | 80 (≈ 220 µM) | 160 (≈ 440 µM) | 
8 | CCN(CC)CCSC1=Nc2ccccc2N=C(c2ccc(Br)cc2)C1 [Compound 71] | 10 (≈ 23.2 µM) | 10 (≈ 23.2 µM) | 20 (≈ 46.5 µM) | 80 (≈ 186 µM) | 
9 | C[N+]1(CCCSC2=Nc3ccccc3N=C(c3ccc(Cl)cc3)C2)CCCC1 [Compound 14, 2,gamma,N-pyrrolidinopropylthio-4,p-chlorophenyl-3H-1.5-benzodiazepine iodomethylate] | 40 | 40 | 20 | 40 | 
10 | CN1CCN(CCSC2=Nc3ccccc3N=C(c3ccc(Sc4ccccc4)cc3)C2)CC1 [Compound 34, 2,beta,N(N'-methyl)piperazinoethylthio-4,p-phenylthiophenyl-3H-1,5-benzodiazepine citrate] |  | 40 |  |  | > 3
11 | C[N+](C)(C)CCCSC1=Nc2ccccc2N=C(c2ccccc2)C1 [Compound 12, 2,gamma,N-dimethylaminopropylthio-4-phenyl-3H-1,5-benzo-diazepine iodomethylate] | 80 | 160 |  | 80 | 
12 | CC[N+](C)(CC)CCSC1=Nc2ccccc2N=C(c2ccc(Br)cc2)C1 [Compound 72] | 20 | 20 | 10 | 20 | 
13 | CC[N+](C)(CC)CCSC1=Nc2ccccc2N=C(c2ccc(Sc3ccccc3)cc2)C1 [Compound 30, 2,beta,N-diethylaminoethylthio-4,p-phenylthio-phenyl-3H-1,5-benzodiazepine iodomethylate] |  | 10 |  |  | 1
14 | CC[N+](C)(CC)CCSC1=Nc2ccccc2N=C(c2ccccc2Cl)C1 [Compound 24, 2,β,N-diethylaminoethylthio-4,o-chlorophenyl-3H-1,5-benzodiazepine iodomethylate] |  |  | 80 |  | 
15 | C[N+]1(CCSC2=Nc3ccccc3N=C(c3ccc(Cl)cc3)C2)CCCC1 [Compound 16, 2,β,N-pyrrolidinoethylthio-4,p-chlorophenyl-3H-1,5-benzodiazepine iodomethylate] | 40 | 40 | 20 | 40 | 
16 | CCCSc1ccc(C2=Nc3ccccc3N=C(SCC[N+](C)(CC)CC)C2)cc1 [Compound 78] | 1.25 | 1.25 | 1.25 | 10 | 
17 | CC[N+](C)(CC)CCSC1=Nc2ccccc2N=C(c2ccc(Oc3ccccc3)cc2)C1 [Compound 28, 2,beta,N-diethylaminoethylthio-4,p-phenoxyphenyl-3H-1,5-benzodiazepine iodomethylate] |  |  |  |  | 1
18 | CCCSc1ccc(C2=Nc3ccccc3N=C(SCCN(CC)CC)C2)cc1 [Compound 77] | 5 (≈ 11.7 µM) | 5 (≈ 11.7 µM) | 10 (≈ 23.5 µM) |  | 
19 | CCN(CC)CCSC1=Nc2ccccc2N=C(c2ccc(Cl)cc2)C1 [Compound 17, 2,beta,N-diethylaminoethylthio-4,p-chlorophenyl-3H-1,5-benzodiazepine^.HCl] | 20 | 20 | 40 |  | 
20 | CCN(CC)CCCSC1=Nc2ccccc2N=C(c2ccc(Sc3ccccc3)cc2)C1 [Compound 39, 2,gamma,N-diethylaminopropylthio-4,p-phenylthiophenyl-3H-1,5-benzodiazepinecitrate] |  | 10 (≈ 21.1 µM) |  |  | 3

Row | Structure (SMILES) | MIC [1] [µg/mL] | MIC [2] [µg/mL] | MIC [3] [µg/mL] | MIC (Escherichia coli 100) [µg/mL] | APR8: difference between logarithms of EID95 of controls and of treated eggs [4]
21 | CC[N+](C)(CC)CCSC1=Nc2ccccc2N=C(c2ccc(SC(C)C)cc2)C1 [Compound 80] | 5 | 5 | 5 | 40 | 
22 | CC[N+](C)(CC)CCSC1=Nc2ccccc2N=C(c2ccc(Cl)cc2)C1 [Compound 18, 2,beta,N-diethylaminoethylthio-4,p-chlorophenyl-3H-1,5-benzodiazepine iodomethylate] |  | 20 | 40 | 20 | 
23 | c1ccc(C2=Nc3ccccc3N=C(SCCN3CCCC3)C2)cc1 [Compound 57] | 80 (≈ 229 µM) | 160 (≈ 458 µM) | 80 (≈ 229 µM) |  | 
24 | CCSc1ccc(C2=Nc3ccccc3N=C(SCC[N+](C)(CC)CC)C2)cc1 [Compound 76] | 10 | 10 | 10 | 20 | 
25 | c1ccc(Sc2ccc(C3=Nc4ccccc4N=C(SCCCN4CCCC4)C3)cc2)cc1 [Compound 37, 2,gamma,pyrrolidinopropylthio-4,p-phenylthiophenyl-3H-1,5-benzodiazepine.HC] | 5 (≈ 10.6 µM) | 5 (≈ 10.6 µM) | 5 (≈ 10.6 µM) |  | 
26 | C[N+]1(C)CC[N+](C)(CCSC2=Nc3ccccc3N=C(c3ccc(Sc4ccccc4)cc3)C2)CC1 [Compound 36, 2,beta,N(N'-methyl)piperazinoethylthio-4-p-phenylthiophenyl-3H-1,5-benzodiazepine bis-iodomethylate] |  | 80 |  | 160 | 
27 | Clc1ccc(C2=Nc3ccccc3N=C(SCCN3CCCC3)C2)cc1 [Compound 15, 2,beta,N-pyrrolidinoethylthio-4,p-chlorophenyl-3H-1,5-benzodiazepine] | 40 (≈ 104 µM) | 20 (≈ 52.1 µM) | 40 (≈ 104 µM) | 80 (≈ 208 µM) | 
28 | c1ccc(Sc2ccc(C3=Nc4ccccc4N=C(SCCN4CCCC4)C3)cc2)cc1 [Compound 43, 2,beta,N-pyrrolidinoethylthio-4,p-phenylthiophenyl-3H-1,5-benzodiazepine] | 1.25 (≈ 2.73 µM) | 1.25 (≈ 2.73 µM) |  |  | 
29 | C[N+]1(C)CCN(CCCSC2=Nc3ccccc3N=C(c3ccccc3)C2)CC1 [Compound 9, 2,gamma,N'-methyl-N-piperazine-n-propylthio-4-phenyl-3H-1,5-benzodiazepine monoiodomethylate] | 80 | 160 | 160 |  | 
30 | CCN(CC)CCCSC1=Nc2ccccc2N=C(c2ccc(Cl)cc2)C1 [Compound 19, 2,gamma,N-diethylaminopropylthio-4,p-chlorophenyl-3H-1,5-benzodiazepine^. HCl] | 40 | 40 | 40 | 80 | 
31 | CN(C)CCSC1=Nc2ccccc2N=C(c2ccc(Sc3ccccc3)cc2)C1 [Compound 45, 2,beta,N-dimethylaminoethylthio-4,p-phenylthiophenyl-3H-1,5-benzodiazepine citrate] |  | 20 |  |  | 
32 | CC[N+](CC)(CCSC1=Nc2ccccc2N=C(c2ccc(Sc3ccccc3)cc2)C1)Cc1ccccc1 [Compound 31, 2,beta,N-diethylaminoethylthio-4,p-phenylthio-phenyl-3H-1,5-benzodiazepine bromobenzylate] |  | 10 |  |  | > 3
33 | CC[N+](C)(CC)CCSC1=Nc2ccccc2N=C(c2ccc(SC)cc2)C1 [Compound 74] | 10 | 10 | 20 | 40 | 
34 | Clc1ccc(C2=Nc3ccccc3N=C(SCCCN3CCCC3)C2)cc1 [Compound 13, 2,gamma,N-pyrrolidinopropylthio-4,p-chlorophenyl-3H-1,5-benzodiazepine^. HCl] | 40 | 40 | 40 | 80 | 
35 | C[N+]1(CCSC2=Nc3ccccc3N=C(c3ccccc3)C2)CCCC1 [Compound 58] |  |  |  |  | 1
36 | CCN(CC)CCSC1=Nc2ccccc2N=C(c2ccc(Oc3ccccc3)cc2)C1 [Compound 27, 2,beta,N-diethylaminoethylthio-4,p-phenoxyphenyl-3H-1,5-benzodiazepine.HCl] |  | 10 |  | 80 | 
37 | CN1CCN(CCSC2=Nc3ccccc3N=C(c3ccccc3)C2)CC1 [Compound 63] |  |  |  |  | 1
38 | CC[N+](C)(CC)CCSC1=Nc2ccccc2N=C(c2cccc(Cl)c2)C1 [Compound 22, 2,beta,N-diethylaminoethylthio-4,m-chlorophenyl-3H-1,5-benzodiazepine iodomethylate] | 40 | 80 | 20 | 40 | 
39 | CCN(CC)CCSC1=Nc2ccccc2N=C(c2ccc(Sc3ccccc3)cc2)C1 [Compound 29, 2,beta-N-diethylaminoethylthio-4,p-phenylthiophenyl-3H-1,5-benzodiazepine.HOl] |  |  |  | 80 (≈ 174 µM) | 

From US3933793A, “Therapeutically active 2-aminoalkylthio-3H-1.5-benzodiazepines and process for preparing them” (Recordati S.A. Chemical and Pharmaceutical Company, priority 1971, dated 1976)
